Experimental data reported in patent US12435091B2, “RNA-binding protein multimerization inhibitors and methods of use thereof” (THE UAB RESEARCH FOUNDATION, priority 2020, dated 2025).
Like-named read-outs stand apart in the source and are kept apart here. Blank lines part the entries; values can stand above or below the compound they belong to.

Tests used:
HuR = target: T1, HuR (Homo sapiens, UniProt Q15717); assay: cell-based split firefly luciferase-HuR dimerization assay; conditions: for IC50: read-out: HuR IC50
T1 construct: expressed in transfected cells; host or cells: U251 glioma cells, doxycycline-inducible constructs
Method: (§1) The oncogenic activity of HuR is driven by subcellular localization into the cytoplasm and formation of multimers of HuR. To develop cell based assays to characterize the ability of small molecules to disrupt this process, a split luciferase assay detecting the formation of HuR dimers was developed. The assays were performed in 96 well plates with clear bottom (Corning Inc., Corning, NY). Cells with designed constructs (30,000-50,000 in number) were plated per well; the constructs were induced by doxycycline (0.75 ug/ml) for 48 hours. The evaluated compounds at different concentrations and the corresponding vehicle as the control were administered for 6 hours. The luminescence signals were detected by using InfinitiM200 plate reader (TECAN, Morrisville, NC) in the presence of the luciferase substrate luciferin (D-Luciferin, potassium salt), which was purchased from GoldBio (St Louis, MO). A multichannel pipette (XL 3000I™, Denville Scientific, South Plainfield, NJ) was used in all procedures to ensure the experiment quality.
The assay used the coding sequence of HuR in frame with the N-terminus of firefly luciferase or the C-terminus as depicted in FIG. 2A. When HuR forms dimers in this case, luciferase is generated and with luciferin present, luminescence is generated.
(§2) Squares represent luminescence signal from reporter representing HuR dimers (U251 cells co-expressing HuR-Nluc and HuR-Cluc constructs); circles represent luminescence signal from control reporter (U251 cells expressing Fluc construct). Results are shown as mean+SD.

[1] = tested on: U251 cells expressing Fluc construct; assay: control Fluc (full length luciferase) reporter assay in U251 cells; format: cell-based; conditions: Homo sapiens, U-251, 6 h, read-out: Fluc Imax % Inh; for inhibition at 50 µM: Concn 50 uM; for inhibition at 100 µM: Concn 100 uM
Method: as §1, with “quality. […]” for “quality.”
as §2

[2] = split luciferase HuR dimerization assay, compounds administered for 6 hours
[3] = U251 cells co-expressing HuR-Nluc and HuR-Cluc, 6 hours of treatment

T1 sequence (Q15717 whole entry): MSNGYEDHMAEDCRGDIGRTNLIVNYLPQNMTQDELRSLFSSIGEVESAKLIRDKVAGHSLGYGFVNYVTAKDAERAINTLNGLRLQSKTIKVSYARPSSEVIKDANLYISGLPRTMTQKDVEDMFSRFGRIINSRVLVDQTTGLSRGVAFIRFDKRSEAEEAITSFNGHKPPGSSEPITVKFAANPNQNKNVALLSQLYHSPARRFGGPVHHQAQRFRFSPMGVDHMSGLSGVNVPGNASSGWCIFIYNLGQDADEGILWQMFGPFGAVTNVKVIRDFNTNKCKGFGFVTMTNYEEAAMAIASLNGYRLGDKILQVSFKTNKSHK

IC50 (HuR; [2]): 12 µM
Compound: c1cnc2cc(-c3cnc4ccc(NC5CCOCC5)nn34)ccc2n1 [Compound 12]

IC50 (HuR; [2]): > 30 µM
Compound: c1cc2cc(-c3cnc4ccc(NC5CCOCC5)nn34)ccc2o1 [Compound 10]

HuR N/C Imax % Inh (HuR; Concn 25 uM): 94% | IC50 (HuR; [2]): 0.3 µM
Compound: c1cc2[nH]ncc2cc1-c1cnc2ccc(NC3CCOCC3)nn12 [Compound 39, 3-(1H-Indazol-5-yl)-N-(tetrahydro-2H-pyran-4-yl)imidazo[1,2-b]pyridazin-6-amine]
inhibition at 25 µM ([1]; Concn 25 uM): 28%

HuR N/C Imax % Inh (HuR; Concn 100 uM): 89% | IC50 (HuR; [3]): 0.6 µM | IC50 (HuR; [2]): 0.6 µM
Compound: CCCN(C)c1ccc2ncc(-c3ccc4[nH]ncc4c3)n2n1 [Compound 49, 3-(1H-Indazol-5-yl)-N-methyl-N-propylimidazo[1,2-b]pyridazin-6-amine]
inhibition at 100 µM [1]: 12%

IC50 (HuR; [2]): > 50 µM
Compound: CC(=O)c1n[nH]c2ccc(-c3cnc4ccc(N(C)C5CCOCC5)nn34)cc12 [Compound 54, 1-(5-(6-(Methyl(tetrahydro-2H-pyran-4-yl)amino)imidazo[1,2-b]pyridazin-3-yl)-1H-indazol-3-yl)ethan-1-one]

HuR N/C Imax % Inh (HuR; Concn 50 uM): 71% | IC50 (HuR; [3]): 3.4 µM | IC50 (HuR; [2]): 3.4 µM
Compound: CN(c1ccc2ncc(-c3ccc4cnn(C)c4c3)n2n1)C1CCOCC1 [Compound 21, N-Methyl-3-(1-methyl-1H-indazol-6-yl)-N-(tetrahydro-2H-pyran-4-yl)imidazo[1,2-b]pyridazin-6-amine]
inhibition at 50 µM [1]: 28%

HuR N/C Imax % Inh (HuR; Concn 50 uM): 89% | IC50 (HuR; [3]): 3 µM | IC50 (HuR; [2]): 3 µM
Compound: CN(c1ccc2ncc(-c3ccc4nccn4c3)n2n1)C1CCOCC1 [Compound 18, 3-(Imidazo[1,2-a]pyridin-6-yl)-N-methyl-N-(tetrahydro-2H-pyran-4-yl)imidazo[1,2-b]pyridazin-6-amine]
inhibition at 50 µM [1]: 6%

HuR N/C Imax % Inh (HuR; Concn 50 uM): 93% | IC50 (HuR; [3]): 9 µM | IC50 (HuR; [2]): 9 µM
Compound: CN(c1ccc2ncc(-c3ccc4cn[nH]c4c3)n2n1)C1CCCCC1 [Compound 22, N-Cyclohexyl-3-(1H-indazol-6-yl)-N-methylimidazo[1,2-b]pyridazin-6-amine]
inhibition at 50 µM [1]: 32%

IC50 (HuR; [2]): > 50 µM
Compound: CCCN(C)c1ccc2ncc(-c3ccc4c(C)nn(C)c4c3)n2n1 [Compound 36, 3-(1,3-Dimethyl-1H-indazol-6-yl)-N-methyl-N-propylimidazo[1,2-b]pyridazin-6-amine]

IC50 (HuR; [2]): > 50 µM
Compound: c1cc2cn[nH]c2cc1-c1cnc2ccc(N(CC3CC3)C3CCOCC3)nn12 [Compound 28, N-(Cyclopropylmethyl)-3-(1H-indazol-6-yl)-N-(tetrahydro-2H-pyran-4-yl)imidazo[1,2-b]pyridazin-6-amine]

IC50 (HuR; [2]): 40 µM
Compound: Cc1nn(C)c2cc(-c3cnc4ccc(NC5CCOCC5)nn34)ccc12 [Compound 34, 3-(1,3-Dimethyl-1H-indazol-6-yl)-N-(tetrahydro-2H-pyran-4-yl)imidazo[1,2-b]pyridazin-6-amine]

IC50 (HuR; [2]): 23 µM
Compound: CN(c1ccc2ncc(-c3ccccc3)n2n1)C1CCOCC1 [Compound 14, N-Methyl-3-phenyl-N-(tetrahydro-2H-pyran-4-yl)imidazo[1,2-b]pyridazin-6-amine]

IC50 (HuR; [2]): > 30 µM
Compound: CC(=O)Nc1cccc(-c2cnc3ccc(NC4CCOCC4)nn23)c1 [Compound 9]

IC50 (HuR; [2]): > 50 µM
Compound: CN1CCC(N(C)c2ccc3ncc(-c4ccc5cn[nH]c5c4)n3n2)CC1 [Compound 25, 3-(1H-Indazol-6-yl)-N-methyl-N-(1-methylpiperidin-4-yl)imidazo[1,2-b]pyridazin-6-amine]

IC50 (HuR; [2]): > 50 µM
Compound: Cc1n[nH]c2cc(-c3cnc4ccc(NC5CCOCC5)nn34)ccc12 [Compound 31, 3-(3-Methyl-1H-indazol-6-yl)-N-(tetrahydro-2H-pyran-4-yl)imidazo[1,2-b]pyridazin-6-amine]

IC50 (HuR; [2]): > 50 µM
Compound: Cc1nn(C)c2cc(-c3cnc4ccc(N(C)C5CCOCC5)nn34)ccc12 [Compound 35, 3-(1,3-Dimethyl-1H-indazol-6-yl)-N-methyl-N-(tetrahydro-2H-pyran-4-yl)imidazo[1,2-b]pyridazin-6-amine]

IC50 (HuR; [2]): > 30 µM
Compound: c1cncc(-c2cnc3ccc(NC4CCOCC4)nn23)c1 [Compound 8]

HuR IC50 (HuR; [2]): Insoluble
Compound: Cc1nn(C)c2ccc(-c3cnc4ccc(NC5CCOCC5)nn34)cc12 [Compound 43, 3-(1,3-Dimethyl-1H-indazol-5-yl)-N-(tetrahydro-2H-pyran-4-yl)imidazo[1,2-b]pyridazin-6-amine]

HuR IC50 (HuR; [2]): Insoluble
Compound: Cc1nn(C)c2ccc(-c3cnc4ccc(N(C)C5CCOCC5)nn34)cc12 [Compound 44, 3-(1,3-Dimethyl-1H-indazol-5-yl)-N-methyl-N-(tetrahydro-2H-pyran-4-yl)imidazo[1,2-b]pyridazin-6-amine]

Further lines, the compound ahead of its results:

Compound: O=C(CCn1ccc(=O)[nH]c1=O)N1CCN(C(=O)C2CC2c2ccc3c(c2)OCO3)CC1 (centres unmarked) [SRI-43654]
HuR N/C Imax % Inh (HuR; Concn 50 uM): 0% | inhibition at 50 µM [1]: 0%

Compound: c1ccc(CNc2ccc3ncc(-c4ccc5[nH]ncc5c4)n3n2)cc1 [Compound 47, N-Benzyl-3-(1H-indazol-5-yl)imidazo[1,2-b]pyridazin-6-amine]
HuR N/C Imax % Inh (HuR; Concn 50 uM): 93% | IC50 (HuR; [3]): 3 µM | IC50 (HuR; [2]): 3 µM | inhibition at 50 µM [1]: 24%

Compound: Clc1ncc2nnn(-c3ccc4cn[nH]c4c3)c2n1 [SRI-42123]
HuR N/C Imax % Inh (HuR; Concn 50 uM): 0% | inhibition at 50 µM [1]: 0%

Compound: Clc1ccc2ncc(-c3ccc4cn[nH]c4c3)n2n1 [SRI-43183]
HuR N/C Imax % Inh (HuR; Concn 100 uM): 76% | inhibition at 100 µM [1]: 20%

Compound: CN1CCN(c2ccc3ncc(-c4ccc5[nH]ncc5c4)n3n2)CC1 [Compound 52, 3-(1H-Indazol-5-yl)-6-(4-methylpiperazin-1-yl)imidazo[1,2-b]pyridazine]
HuR N/C Imax % Inh (HuR; Concn 50 uM): 90% | IC50 (HuR; [3]): 8 µM | IC50 (HuR; [2]): 8 µM | inhibition at 50 µM [1]: 13%

Compound: COc1ccc(-c2[nH]ncc2C(=O)NCC2CC2)cc1Cl [SRI-43649]
HuR N/C Imax % Inh (HuR; Concn 50 uM): 0% | inhibition at 50 µM [1]: 0%

Compound: Cc1ccc(S(=O)(=O)NC(C(=O)Oc2ccc3c4c(c(=O)oc3c2C)CCC4)c2ccccc2)cc1 (centres unmarked) [SRI-43651]
HuR N/C Imax % Inh (HuR; Concn 50 uM): 0% | inhibition at 50 µM [1]: 0%

Compound: CCCN(C)c1ccc2ncc(-c3cccc(N(C)C)c3)n2n1 [Compound 16, 3-(3-(Dimethylamino)phenyl)-N-methyl-N-propylimidazo[1,2-b]pyridazin-6-amine]
IC50 (HuR; [2]): > 50 µM

Compound: CCCN(C)c1ccc2ncc(-c3cnc4[nH]ncc4c3)n2n1 [Compound 56, N-Methyl-N-propyl-3-(1H-pyrazolo[3,4-b]pyridin-5-yl)imidazo[1,2-b]pyridazin-6-amine]
inhibition at 50 µM [1]: 5%

Compound: COc1ccc(-c2cnc3ccc(NC4CCCCC4)nn23)cc1 [Compound 15]
IC50 (HuR; [2]): > 30 µM

Compound: OCc1ccccc1-c1cnc2ccc(NC3CCOCC3)nn12 [Compound 7]
IC50 (HuR; [2]): > 100 µM

Compound: c1ccc(-c2cnc3ccc(NC4CCOCC4)nn23)cc1 [Compound 11]
IC50 (HuR; [2]): 18 µM

Compound: CS(=O)(=O)c1ccc(-c2cnc3ccc(NC4CCOCC4)nn23)cc1 [Compound 6]
IC50 (HuR; [2]): > 30 µM

Compound: CCCN(C)c1ccc2ncc(-c3cccc4cnccc34)n2n1 [Compound 17, 3-(Isoquinolin-5-yl)-N-methyl-N-propylimidazo[1,2-b]pyridazin-6-amine]
IC50 (HuR; [2]): > 50 µM

Compound: CCCN(C)c1ccc2ncc(-c3ccc4c(C)n[nH]c4c3)n2n1 [Compound 33, N-Methyl-3-(3-methyl-1H-indazol-6-yl)-N-propylimidazo[1,2-b]pyridazin-6-amine]
IC50 (HuR; [2]): 25 µM
